Experiments:
Assay type in all cases: cell-based
NK1 = NK1 (Homo sapiens, UniProt P25103); assay: Signal transduction (ST), intracellular Ca++ (FLIPR), NK1 antagonism; settings: for IC50: read-out: pIC50 NK1 (converted)
Protocol: (§1) This test evaluates in vitro functional NK1 antagonistic activity. For the measurements of intracellular Ca^++ concentrations the cells were grown on 96-well (black wall/transparent bottom) plates from Costar for 2 days until they reached confluence. The cells were loaded with 2 μM Fluo3 in DMEM containing 0.1% BSA and 2.5 mM probenecid for 1 h at 37° C. […] The cells were preincubated with a concentration range of antagonists for 20 min at RT and Ca^++-signals after addition of the agonists were measured in a Fluorescence Image Plate Reader (FLIPR from Molecular Devices, Crawley, England). The peak of the Ca^++-transient was considered as the relevant signal and the mean values of corresponding wells were analysed as described below.
(§2) The sigmoidal dose response curves were analysed by computerised curve-fitting, using the GraphPad Program. […] For antagonist responses the IC50-value was calculated using non-linear regression.

NK3 = target: T1, NK3 (Homo sapiens, UniProt P29371); assay: Signal transduction (ST), intracellular Ca++ (FLIPR), NK3; settings: for IC50: read-out: pIC50 NK3 (converted)
T1 sequence (P29371 1-465): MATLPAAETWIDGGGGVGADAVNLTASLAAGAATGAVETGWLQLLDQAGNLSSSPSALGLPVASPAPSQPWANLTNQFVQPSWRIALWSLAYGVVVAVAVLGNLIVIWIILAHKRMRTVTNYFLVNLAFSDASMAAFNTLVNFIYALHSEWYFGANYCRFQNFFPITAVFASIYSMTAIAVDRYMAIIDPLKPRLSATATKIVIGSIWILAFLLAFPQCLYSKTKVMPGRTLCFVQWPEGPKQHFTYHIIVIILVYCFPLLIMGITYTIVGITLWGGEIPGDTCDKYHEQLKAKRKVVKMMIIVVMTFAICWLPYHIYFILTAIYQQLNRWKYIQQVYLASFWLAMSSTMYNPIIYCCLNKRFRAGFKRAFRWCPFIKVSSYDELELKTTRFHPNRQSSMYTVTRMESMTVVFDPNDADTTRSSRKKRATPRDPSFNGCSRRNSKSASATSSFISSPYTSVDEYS
Protocol: [The source words this procedure for another target and reports this target under the same test.] as §1, §2

NK2 = target: T2, NK2 (Homo sapiens, UniProt P21452); assay: Signal transduction (ST), intracellular Ca++ (FLIPR), NK2; settings: for IC50: read-out: pIC50 NK2 (converted)
T2 sequence (P21452 1-398): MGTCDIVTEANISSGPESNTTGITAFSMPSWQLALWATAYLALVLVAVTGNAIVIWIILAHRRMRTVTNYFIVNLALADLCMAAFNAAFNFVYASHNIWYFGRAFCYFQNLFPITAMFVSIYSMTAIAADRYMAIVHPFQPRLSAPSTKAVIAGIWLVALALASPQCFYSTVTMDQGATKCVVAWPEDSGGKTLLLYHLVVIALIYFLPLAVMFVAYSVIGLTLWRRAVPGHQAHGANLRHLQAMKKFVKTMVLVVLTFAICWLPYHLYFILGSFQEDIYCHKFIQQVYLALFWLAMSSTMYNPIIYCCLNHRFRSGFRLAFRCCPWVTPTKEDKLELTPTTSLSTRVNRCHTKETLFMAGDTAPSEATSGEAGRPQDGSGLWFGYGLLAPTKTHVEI
Protocol: [The source words this procedure for another target and reports this target under the same test.] as §1, §2

Sequence of NK1 (P25103 whole entry): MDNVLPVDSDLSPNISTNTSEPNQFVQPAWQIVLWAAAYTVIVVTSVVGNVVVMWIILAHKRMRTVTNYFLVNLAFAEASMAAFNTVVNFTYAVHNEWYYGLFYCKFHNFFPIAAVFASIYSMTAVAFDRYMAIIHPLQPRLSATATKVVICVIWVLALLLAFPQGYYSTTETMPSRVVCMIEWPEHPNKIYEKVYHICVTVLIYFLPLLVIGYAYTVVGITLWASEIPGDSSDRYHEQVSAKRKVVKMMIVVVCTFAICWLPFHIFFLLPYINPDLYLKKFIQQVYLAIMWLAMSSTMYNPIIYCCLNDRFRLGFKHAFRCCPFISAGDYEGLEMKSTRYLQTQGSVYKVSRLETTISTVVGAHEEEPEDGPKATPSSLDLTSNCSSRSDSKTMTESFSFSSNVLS

| Structure (SMILES) | IC50 (NK1) [nM] | IC50 (NK3) [nM] | IC50 (NK2) [nM] | pIC50 NK1 (NK1) | pIC50 NK3 (NK3) | pIC50 NK2 (NK2) |
| --- | --- | --- | --- | --- | --- | --- |
| O=C(c1ccccc1Cl)N1CCCC(N2CCN([C@H]3CCN(C(=O)c4cc(C(F)(F)F)cc(C(F)(F)F)c4)[C@H](Cc4ccccc4)C3)CC2)C1 (stereo partly drawn) [Compound 10] | 25.1 | 501 | 3980 | – | – | – |
| O=C(c1cccc(O)c1)N1CCCC(N2CCN([C@H]3CCN(C(=O)c4cc(C(F)(F)F)cc(C(F)(F)F)c4)[C@H](Cc4ccccc4)C3)CC2)C1 (stereo partly drawn) [Compound 70] | 7.94 | 1260 | 3980 | – | – | – |
| O=C(c1cc(C(F)(F)F)cc(C(F)(F)F)c1)N1CC[C@H](N2CCN(C3CCCN(S(=O)(=O)c4ccc(Cl)s4)C3)CC2)C[C@H]1Cc1ccccc1 (stereo partly drawn) [Compound 36] | – | – | – | 7.5 | 6.2 | 5.3 |
| O=C(c1ccc(CCO)s1)N1CCCC(N2CCN(C3CCN(C(=O)c4cc(C(F)(F)F)cc(C(F)(F)F)c4)C(Cc4ccccc4)C3)CC2)C1 (stereo not drawn) [Compound 98] | 12.6 | 2000 | 5010 | – | – | – |
| N#Cc1cccc(C(=O)N2CCCC(N3CCN([C@H]4CCN(C(=O)c5cc(C(F)(F)F)cc(C(F)(F)F)c5)[C@H](Cc5ccccc5)C4)CC3)C2)c1 (stereo partly drawn) [Compound 57] | 12.6 | 794 | 3160 | – | – | – |
| COc1ccccc1C(=O)N1CCCC(N2CCN([C@H]3CCN(C(=O)c4cc(C(F)(F)F)cc(C(F)(F)F)c4)[C@H](Cc4ccccc4)C3)CC2)C1 (stereo partly drawn) [Compound 47] | 15.8 | 501 | 5010 | – | – | – |
| CC(C)NC(=O)N1CCCC(N2CCN(C3CCN(C(=O)c4cc(C(F)(F)F)cc(C(F)(F)F)c4)C(Cc4ccccc4)C3)CC2)C1 (stereo not drawn) [Compound 66] | 5.01 | 3160 | 3160 | – | – | – |
| O=C(c1cc(C(F)(F)F)cc(C(F)(F)F)c1)N1CCC(N2CCN(C3CCCN(S(=O)(=O)c4cc(CCO)cs4)C3)CC2)CC1Cc1ccccc1 (stereo not drawn) [Compound 96] | 15.8 | 100 | 398 | – | – | – |
| O=C(c1cc(C(F)(F)F)cc(C(F)(F)F)c1)N1CC[C@H](N2CCN(C3CCCN(S(=O)(=O)c4ccccc4C(F)(F)F)C3)CC2)C[C@H]1Cc1ccccc1 (stereo partly drawn) [Compound 50] | 100 | 7940 | 6310 | – | – | – |
| O=C(OCc1ccccc1C(=O)N1CCCC(N2CCN([C@H]3CCN(C(=O)c4cc(C(F)(F)F)cc(C(F)(F)F)c4)[C@H](Cc4ccccc4)C3)CC2)C1)c1ccccc1 (stereo partly drawn) [Compound 82] | 63.1 | 7940 | 3160 | – | – | – |
| O=C(c1cc(C(F)(F)F)cc(C(F)(F)F)c1)N1CC[C@H](N2CCN(C3CCCN(S(=O)(=O)c4ccc(CO)cc4)C3)CC2)C[C@H]1Cc1ccccc1 (stereo partly drawn) [Compound 73] | 7.94 | 251 | 794 | – | – | – |
| CC(C)N/C(=C\[N+](=O)[O-])N1CCCC(N2CCN(C3CCN(C(=O)c4cc(C(F)(F)F)cc(C(F)(F)F)c4)C(Cc4ccccc4)C3)CC2)C1 (stereo not drawn) [Compound 103] | 10 | – | 6310 | – | – | – |
| Cc1csc(C)c1S(=O)(=O)N1CCCC(N2CCN([C@H]3CCN(C(=O)c4cc(C(F)(F)F)cc(C(F)(F)F)c4)[C@H](Cc4ccccc4)C3)CC2)C1 (stereo partly drawn) [Compound 33] | 39.8 | 1000 | – | – | – | – |
| O=C(C1CC1)N1CCCC(N2CCCN([C@@H]3CCN(C(=O)c4cc(C(F)(F)F)cc(C(F)(F)F)c4)[C@H](Cc4ccccc4)C3)CC2)C1 (stereo partly drawn) [Compound 114] | 126 | 7940 | – | – | – | – |
| COc1ccc(C)cc1S(=O)(=O)N1CCCC(N2CCN([C@H]3CCN(C(=O)c4cc(C(F)(F)F)cc(C(F)(F)F)c4)[C@H](Cc4ccccc4)C3)CC2)C1 (stereo partly drawn) [Compound 31] | 25.1 | 3160 | – | – | – | – |
| O=C(c1ccoc1)N1CCCC(N2CCN(C3CCN(C(=O)c4cc(C(F)(F)F)cc(C(F)(F)F)c4)C(Cc4ccccc4)C3)CC2)C1 (stereo not drawn) [Compound 17] | 31.6 | 2510 | – | – | – | – |

| Structure (SMILES) | IC50 (NK1) [nM] | IC50 (NK3) [nM] | IC50 (NK2) [nM] | pIC50 NK1 (NK1) | pIC50 NK3 (NK3) | pIC50 NK2 (NK2) |
| --- | --- | --- | --- | --- | --- | --- |
| Cc1occc1C(=O)N1CCCC(N2CCN([C@H]3CCN(C(=O)c4cc(C(F)(F)F)cc(C(F)(F)F)c4)[C@H](Cc4ccccc4)C3)CC2)C1 (stereo partly drawn) [Compound 19] | 25.1 | 2000 | – | – | – | – |
| CC(=O)N1CCC[C@H]1C(=O)N1CCCC(N2CCN([C@H]3CCN(C(=O)c4cc(C(F)(F)F)cc(C(F)(F)F)c4)[C@H](Cc4ccccc4)C3)CC2)C1 (stereo partly drawn) [Compound 60] | 5.01 | 6310 | – | – | – | – |
| O=C(c1ccc(CCOCc2ccccc2)s1)N1CCCC(N2CCN(C3CCN(C(=O)c4cc(C(F)(F)F)cc(C(F)(F)F)c4)C(Cc4ccccc4)C3)CC2)C1 (stereo not drawn) [Compound 93] | 126 | 5010 | – | – | – | – |
| O=C(c1cc(C(F)(F)F)cc(C(F)(F)F)c1)N1CC[C@@H](N2CCCN(C3CCCN(S(=O)(=O)c4cccs4)C3)CC2)C[C@H]1Cc1ccccc1 (stereo partly drawn) [Compound 120] | 200 | 7940 | – | – | – | – |
| O=C(C1CCOC1)N1CCCC(N2CCN([C@H]3CCN(C(=O)c4cc(C(F)(F)F)cc(C(F)(F)F)c4)[C@H](Cc4ccccc4)C3)CC2)C1 (stereo partly drawn) [Compound 16] | 12.6 | 1000 | – | – | – | – |
| O=C(c1cc(C(F)(F)F)cc(C(F)(F)F)c1)N1CC[C@H](N2CCN(C3CCCN(S(=O)(=O)c4ccc(-c5ccccn5)s4)C3)CC2)C[C@H]1Cc1ccccc1 (stereo partly drawn) [Compound 34] | 50.1 | 2000 | – | – | – | – |
| O=C(c1cc(C(F)(F)F)cc(C(F)(F)F)c1)N1CC[C@H](N2CCN(C3CCCN(S(=O)(=O)c4ccc(COCc5ccccc5)cc4)C3)CC2)C[C@H]1Cc1ccccc1 (stereo partly drawn) [Compound 58] | 251 | – | 2000 | – | – | – |
| CC(C)S(=O)(=O)N1CCCC(N2CCN([C@H]3CCN(C(=O)c4cc(C(F)(F)F)cc(C(F)(F)F)c4)[C@H](Cc4ccccc4)C3)CC2)C1 (stereo partly drawn) [Compound 35] | 10 | 2000 | – | – | – | – |
| O=C(c1cc(C(F)(F)F)cc(C(F)(F)F)c1)N1CC[C@H](N2CCN(C3CCCN(C(=O)n4ccnc4)C3)CC2)C[C@H]1Cc1ccccc1 (stereo partly drawn) [Compound 21] | 20 | 1260 | – | – | – | – |
| O=C(c1cc(C(F)(F)F)cc(C(F)(F)F)c1)N1CC[C@H](N2CCN(C3CCCN(S(=O)(=O)c4ccccc4Cl)C3)CC2)C[C@H]1Cc1ccccc1 (stereo partly drawn) [Compound 27] | 20 | 1260 | – | – | – | – |
| O=C(c1cc(C(F)(F)F)cc(C(F)(F)F)c1)N1CC[C@H](N2CCN(C3CCCN(S(=O)(=O)c4occc4COCc4ccccc4)C3)CC2)C[C@H]1Cc1ccccc1 (stereo partly drawn) [Compound 90] | – | – | – | 6.8 | – | 5.7 |
| COc1ccc(S(=O)(=O)N2CCCC(N3CCN([C@H]4CCN(C(=O)c5cc(C(F)(F)F)cc(C(F)(F)F)c5)[C@H](Cc5ccccc5)C4)CC3)C2)cc1F (stereo partly drawn) [Compound 7] | 50.1 | 1000 | – | – | – | – |
| Cc1cc(C(=O)N2CCCC(N3CCN([C@H]4CCN(C(=O)c5cc(C(F)(F)F)cc(C(F)(F)F)c5)[C@H](Cc5ccccc5)C4)CC3)C2)n(C)n1 (stereo partly drawn) [Compound 42] | 7.94 | 2510 | – | – | – | – |
| O=C(c1ccco1)N1CCCC(N2CCN([C@H]3CCN(C(=O)c4cc(C(F)(F)F)cc(C(F)(F)F)c4)[C@H](Cc4ccccc4)C3)CC2)C1 (stereo partly drawn) [Compound 18] | 20 | 2510 | – | – | – | – |
| O=C(C(=O)N1CCCC(N2CCN(C3CCN(C(=O)c4cc(C(F)(F)F)cc(C(F)(F)F)c4)C(Cc4ccccc4)C3)CC2)C1)c1ccco1 (stereo not drawn) [Compound 24] | 25.1 | 3980 | – | – | – | – |
| O=C(c1ccccc1Cl)N1CCCC(N2CCCN([C@H]3CCN(C(=O)c4cc(C(F)(F)F)cc(C(F)(F)F)c4)[C@H](Cc4ccccc4)C3)CC2)C1 (stereo partly drawn) [Compound 118] | 63.1 | 2510 | – | – | – | – |
